Like-named read-outs stand apart in the source and are kept apart here.
Key:
[1] = system: subcutaneous B16F10 melanoma tumor; assay: Biodistribution of 99mTc complexes in mice bearing subcutaneous B16F10 melanoma tumor; type: in vivo; conditions: for tumor uptake and retention (in words): mouse, in vivo
Source text: Biodistribution of 99 mTc complexes in mice bearing subcutaneous B16F10 melanoma tumor was studied for complexes Tc-1-Tc-6.

σ1 receptor = molecular target: T1, σ1 receptor (Cavia porcellus, UniProt Q60492); assay: σ1 receptor competition binding assay, [3H]-(+)-pentazocine; parameters: species or system guinea pig
T1 construct: The membranes were prepared from guinea pig brain (minus cerebellum) as described above; from tissue; host or cells: guinea pig brain (minus cerebellum) membranes
Procedure: […] See, Mol. Neuropharmacol. 1993, 3, 117-126.
The membranes were prepared from guinea pig brain (minus cerebellum) as described above and stored at −70° C. Twelve concentrations of the nonradioactive rhenium complexes ranging from 1×10^−11 to 1×10^−3 and protein samples (0.15 mg of membrane protein) were incubated with 5 nM [^3H]-(+)-pentazocine in a total volume of 0.25 mL of Tris-HCl (50 mM, pH 8.0). Incubations were carried out for 120 min at 25° C. All assays were terminated by dilution with 5 mL of ice-cold Tris-HCl (10 mM), pH 8.0, and solution were filtered through glass-fiber filters (Whatman GF/F; presoaked in 0.5% polyethyleneimine for 30 min at 25° C.). Filters were then washed three times with 5 mL of ice-cold Tris-HCl (50 mM, pH 8.0), and counted in Hionic-Fluor cocktail (Packard, Groningen, the Netherlands). The corresponding IC50 values were determined with Origin 6.0 software (OriginLab, Northampton, Mass.) and were used for the calculation of the apparent Ki values with the Cheng-Prusoff equation. See, Biochem. Pharmacol. 1973, 22, 3099-3108.

σ2 receptor = molecular target: T2, σ2 receptor (Rattus norvegicus, UniProt Q5U3Y7); assay: σ2 receptor competition binding assay, [3H]-DTG, rat liver membranes
T2 construct: Rat liver membranes were prepared from male Sprague-Dawley rat livers as previously described; from tissue; host or cells: rat (Sprague-Dawley) liver membranes
T2 sequence (Q5U3Y7 1-176): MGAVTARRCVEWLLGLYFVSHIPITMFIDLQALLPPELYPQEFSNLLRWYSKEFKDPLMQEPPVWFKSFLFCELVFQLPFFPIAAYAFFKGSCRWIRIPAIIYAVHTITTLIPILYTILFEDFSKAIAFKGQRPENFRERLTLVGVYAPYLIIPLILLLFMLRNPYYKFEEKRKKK
Procedure: Rat liver membranes were prepared from male Sprague-Dawley rat livers as previously described (Eur. J. Pharmacol.-Mol. Pharmacol. Sect. 1994, 268, 9-18). The in vitro σ2 receptor binding affinities of rhenium coordinated complexes were determined in a competition assay using rat livers and [^3H]-DTG (31 Ci/mmol, NEN Life Science Inc., Cambridge, Mass.) as radioligand in the presence of 10 μM 1-pyrrolidinylethyl 3,4-dichlorophenylacetate oxalate (ACT915 oxalate) to mask σ1 receptors (Bioorg. & Med. Chem. Lett. 2000, 10, 17-18). Competition assays were performed with twelve concentrations of the nonradioactive rhenium complexes ranging from […] to 1×10^−3 and protein samples (0.15 mg of membrane protein) in a total volume of 0.25 mL of Tris-HCl (50 mM, pH 8.0) for 120 min at 25° C. All other manipulations and data analysis were performed as described vide supra for the σ1—receptor assays.

5HT1A receptor = molecular target: T3, 5HT1A receptor (Rattus norvegicus, UniProt P19327); assay: 5HT1A receptor competition binding assay, [3H]-8-OH-DPAT, rat hippocampus
T3 construct: hippocampal homogenates that were prepared from Sprague Dawley rat hippocampus; from tissue; host or cells: rat (Sprague-Dawley) hippocampus membranes
T3 sequence (P19327 1-422): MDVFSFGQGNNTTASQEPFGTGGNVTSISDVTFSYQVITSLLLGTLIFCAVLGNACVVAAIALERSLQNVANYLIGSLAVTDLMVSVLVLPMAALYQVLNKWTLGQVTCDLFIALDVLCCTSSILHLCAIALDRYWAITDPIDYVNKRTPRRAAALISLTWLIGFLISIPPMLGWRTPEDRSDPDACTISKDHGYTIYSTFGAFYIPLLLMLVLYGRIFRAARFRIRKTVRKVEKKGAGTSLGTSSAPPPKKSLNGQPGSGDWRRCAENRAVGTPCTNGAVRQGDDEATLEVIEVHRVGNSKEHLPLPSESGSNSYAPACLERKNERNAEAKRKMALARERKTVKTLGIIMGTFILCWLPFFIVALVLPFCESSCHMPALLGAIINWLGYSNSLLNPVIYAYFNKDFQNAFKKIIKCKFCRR
Procedure: The in vitro 5HT1A binding affinities of rhenium coordinated complexes were determined in a competition assay using rat hippocampus and high-affinity 5HT1A-ligand [^3H]-8-OH-DPAT (135 Ci/mmol, NEN Life Science Inc., Cambridge, Mass.). See, Brain Res. 1995, 673, 217-225.
Male Sprague-Dawley rats (weighing 150-170 g) were sacrificed using anesthesia agent isoflurane. The brains were rapidly removed, and hippocampus, frontal cortex, hypothalamus, and striatum were hand-dissected on ice and stored at −70° C. Tissue was thawed at room temperature and homogenized using a Brinkmann Polytron tissue disrupter in 50 volumes (wt/vol) of ice-cold 50 mM Tris-HCl buffer (pH 7.4). The suspension was centrifuged twice at 27,000 g for 20 min at 4° C. The membrane pellets were resuspended in 50 volumes of (wt/vol) Tris-HCl buffer and incubated at 37° C. for 20 min in a water bath, before a final centrifugation step (27,000 g; 20 min; 4° C.). The final tissue pellets were stored at −70° C. until assayed.
Twelve concentrations of the nonradioactive rhenium complexes ranging from 1×10^−11 to 1×10^−4 and protein samples (0.15 mg of membrane protein) were incubated with 1.5 nM [^3H]-8-OH-DPAT in a total volume of 0.25 mL of Tris-HCl (50 mM, pH 7.4, 10 mM MgSO4). Incubations were carried out for 60 min at 25° C. All assays were terminated by dilution with 5 mL of ice-cold Tris-HCl (10 mM), pH 7.4, and solution were filtered through glass-fiber filters (Whatman GF/F; presoaked in 0.5% polyethyleneimine for 30 min at 25° C.). Filters were then washed three times with 5 mL of ice-cold Tris-HCl (50 mM, pH 7.4), and counted in Hionic-Fluor cocktail (Packard, Groningen, the Netherlands). The corresponding IC50 values were determined with Origin 6.0 software (OriginLab, Northampton, Mass.) and were used for the calculation of the apparent Ki values with the Cheng-Prusoff equation. See, Biochem. Pharmacol. 1973, 22, 3099-3108.
Rhenium complexes were synthesized by the reaction of [ReBr(CO)3(C4H8O)]2 with the final ligands in acetonitrile at room temperature. The in vitro 5-HT1A binding affinities of complexes Re(CO)3-L1-L9 were determined in competitive receptor binding assay using hippocampal homogenates that were prepared from Sprague Dawley rat hippocampus and the high-affinity [^3H]-8-OH-DPAT as the 5HT1A specific ligand.
The in vitro affinity of Re(CO)3-L complexes for the 5-HT1A receptors were assessed by their ability to compete with the high affinity 5HT1A radioligand [^3H]-8-OH-DPAT.

D2 receptors = D2 receptors (Homo sapiens, UniProt P14416); assay: D2 receptor affinity; type: binding
[2] = quantity not named in table head, methods calculate apparent Ki (Cheng-Prusoff), read-out: σ-1
[3] = quantity not named in table head, methods calculate apparent Ki (Cheng-Prusoff), read-out: σ-2
[4] = quantity not named in table head, methods calculate apparent Ki (Cheng-Prusoff), read-out: 5HT1A

T1 sequence (Q60492 whole entry): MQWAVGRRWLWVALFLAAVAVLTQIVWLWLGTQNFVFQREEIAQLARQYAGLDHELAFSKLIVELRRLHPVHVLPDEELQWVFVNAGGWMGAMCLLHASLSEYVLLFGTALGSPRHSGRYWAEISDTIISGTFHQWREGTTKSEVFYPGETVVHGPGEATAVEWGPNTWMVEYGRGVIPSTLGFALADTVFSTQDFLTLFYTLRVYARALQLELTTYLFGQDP
Chain of D2 receptors (P14416 whole entry): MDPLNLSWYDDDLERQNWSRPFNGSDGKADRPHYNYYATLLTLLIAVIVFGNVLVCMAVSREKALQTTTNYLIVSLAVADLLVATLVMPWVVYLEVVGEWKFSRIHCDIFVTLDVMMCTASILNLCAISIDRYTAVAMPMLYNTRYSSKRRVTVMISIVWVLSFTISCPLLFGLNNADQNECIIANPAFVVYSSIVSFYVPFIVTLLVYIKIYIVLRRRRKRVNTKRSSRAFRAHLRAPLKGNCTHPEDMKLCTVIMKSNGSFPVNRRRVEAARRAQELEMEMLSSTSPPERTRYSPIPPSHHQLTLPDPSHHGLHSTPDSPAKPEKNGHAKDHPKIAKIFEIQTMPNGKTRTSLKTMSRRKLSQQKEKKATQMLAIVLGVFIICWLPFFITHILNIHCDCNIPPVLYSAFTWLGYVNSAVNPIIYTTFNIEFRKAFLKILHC

Structure (SMILES) | Ki (σ1 receptor; [2]) | Ki (σ2 receptor; [3]) | Ki (5HT1A receptor; [4]) | also measured
CCN(CC)CCN(Cc1ccccn1)Cc1ccccc1[O][99Tc].[C-]#[O+].[C-]#[O+].[C-]#[O+] [99 mTc-2] | – | – | – | tumor uptake ([1]; 1 h postinjection): 3.2 % ID/g; tumor retention over a 6 h period ([1]; share of tumor uptake retained over 6 h): 65%
[99Tc][O]c1ccccc1CN(CCN1CCCCC1)Cc1ccccn1.[C-]#[O+].[C-]#[O+].[C-]#[O+] [99 mTc-3] | – | – | – | tumor uptake and retention (in words) [1]: increase in tumor retention over time
CCN(CC)CC[N+]12CC[N+](CC)(CC)[99Tc-5]1([C]#[O+])([C]#[O+])([C]#[O+])[O]c1ccccc1C2 (stereo not shown) [99 mTc-6] | – | – | – | tumor uptake and retention (in words) [1]: poor tumor uptake and retention
O=C1C[S][Re-]23(=[O])[S]CC[N+]2(CCCCCCN2CCC(c4ccccc4)CC2)CC[N]13 (stereo not shown) [Re-32] | 29.7 ± 4.31 nM | 223 ± 6.54 nM | – | –
O=C1C[S][Re-]23(=[O])[S]CC[N+]2(CCCCCCCN2CCC(c4ccccc4)CC2)CC[N]13 (stereo not shown) [Re-33] | – | – | – | Ki (σ1 receptor): 22.9 ± 1.78 nM; Ki (σ2 receptor): 188 ± 18.8 nM
O=C1CN(CCCCCCN2CCC(c3ccccc3)CC2)CC[S][Re]2(=[O])[S]CC[N]12 (stereo not shown) [Re-40] | 30 ± 6.3 nM | 43.4 ± 0.99 nM | – | –
O=C1C[N+]2(CCCCCCCN3CCC(c4ccccc4)CC3)CC[S][Re-]23(=[O])[S]CC[N]13 (stereo not shown) [Re-41] | – | – | – | Ki (σ1 receptor): 7.6 ± 0.67 nM; Ki (σ2 receptor): 21.25 ± 0.19 nM
COc1cc2c(cc1OC)CN(CCCCCCN1CC[S][Re]3(=[O])[S]CC[N]3C(=O)C1)CC2 (stereo not shown) [Re-42] | 672 ± 17.6 nM | 12.1 ± 0.61 nM | – | –
COc1cc2c(cc1OC)CN(CCCCCCN1CC[S][Re]3(=[O])[S]CC[N]3C(=O)C1)C2 (stereo not shown) [Re-43] | 1480 ± 227 nM | 11.5 ± 0.2 nM | – | –
O=C1CN(CCCCCCN2Cc3ccccc3C2)CC[S][Re]2(=[O])[S]CC[N]12 (stereo not shown) [Re-44] | 64 ± 5.9 nM | 61 ± 3.91 nM | – | –
CCCN(CCCCCCN1CC[S][Re]2(=[O])[S]CC[N]2C(=O)C1)C1CCc2cccc(O)c2C1 (stereo not shown) [Re-45-HO] | – | – | 0.42 ± 0.08 nM | –
CCCN(CCCCCC[N+]12CC[S][Re-]13(=[O])[S]CC[N]3C(=O)C2)C1CCc2cccc(OC)c2C1 (stereo not shown) [Re-45] | – | – | – | Ki (D2 receptors): 1200 nM; Ki (5HT1A receptor): 1.21 ± 0.13 nM; Ki (σ1 receptor): 41 ± 3.58 nM; Ki (σ2 receptor): 442 ± 106 nM
CCCN(CCCN1CC[S][Re]2(=[O])[S]CC[N]2C(=O)C1)C1CCc2c(O)cccc2C1 (stereo not shown) [Re-46 HO] | – | – | 81.4 ± 5.24 nM | –
CCCN(CCCN1CC[S][Re]2(=[O])[S]CC[N]2C(=O)C1)C1CCc2c(cccc2OC)C1 (stereo not shown) [Re-46] | – | – | 91.3 ± 4.1 nM | –
CCCN(CCCCCCN1CC[S][Re]2(=[O])[S]CC[N]2C(=O)C1)C1CCc2c(O)cccc2C1 (stereo not shown) [Re-47 HO] | – | – | 26 ± 2.71 nM | –
CCCN(CCCCCCN1CC[S][Re]2(=[O])[S]CC[N]2C(=O)C1)C1CCc2c(cccc2OC)C1 (stereo not shown) [Re-47] | 64.3 ± 1.27 nM | 244 ± 8.56 nM | 15.4 ± 4.06 nM | –
COc1ccccc1N1CCN(CCC[N+]23Cc4ccccc4[O][Re-5]2([C]#[O+])([C]#[O+])([C]#[O+])[n+]2ccccc2C3)CC1 (stereo not shown) [Re-L1] | – | – | – | Ki (5HT1A receptor; Example 62, Re(CO)3-L complexes, [3H]-8-OH-DPAT, rat hippocampal homogenates, read-out: Ki, 5-HT1A receptor affinity): 83.2 ± 2.2 nM
COc1ccccc1C1CCN(CCCCCC[N+]23Cc4ccccc4[O][Re-2]2(=[C]=O)(=[C]=O)(=[C]=O)[n+]2ccccc2C3)CC1 (stereo not shown) [Re-L11] | – | – | 120 ± 21 nM | –
COc1cc2c(cc1OC)CN(CCCCCC[N+]13Cc4ccccc4[O][Re-2]1(=[C]=O)(=[C]=O)(=[C]=O)[n+]1ccccc1C3)CC2 (stereo not shown) [Re-L12] | 4400 ± 280 nM | 3.37 nM | 940 ± 216 nM | –
COc1cc2c(cc1OC)CN(CCCCCC[N+]13Cc4ccccc4[O][Re-2]1(=[C]=O)(=[C]=O)(=[C]=O)[n+]1ccccc1C3)C2 (stereo not shown) [Re-L13] | 5310 ± 973 nM | 35.6 ± 2.83 nM | – | –
O=[C]=[Re-2]12(=[C]=O)(=[C]=O)[NH2+]CC[N+]1(CCCCCCN1CCC(c3ccccc3)CC1)Cc1ccccc1[O]2 (stereo not shown) [Re-L16a] | 39.3 ± 1.43 nM | 223 ± 8.78 nM | 629 ± 12 nM | –
C[N+]1(C)CC[N+]2(CCCCCCN3CCC(c4ccccc4)CC3)Cc3ccccc3[O][Re-2]12(=[C]=O)(=[C]=O)=[C]=O (stereo not shown) [Re-L16b] | 9.12 ± 0.14 nM | 6420 ± 387 nM | 439 ± 121 nM | –
COc1ccccc1C1CCN(CCCCCC[N+]23CC[NH2+][Re-2]2(=[C]=O)(=[C]=O)(=[C]=O)[O]c2ccccc2C3)CC1 (stereo not shown) [Re-L17a] | – | – | 48 ± 5 nM | –
COc1ccccc1C1CCN(CCCCCC[N+]23CC[N+](C)(C)[Re-2]2(=[C]=O)(=[C]=O)(=[C]=O)[O]c2ccccc2C3)CC1 (stereo not shown) [Re-L17b] | – | – | 18 ± 8 nM | –
[99Tc][O]c1ccccc1CN(CCCN1CCCCC1)Cc1ccccn1.[C-]#[O+].[C-]#[O+].[C-]#[O+] [Tc-4] | – | – | – | tumor uptake and retention (in words) [1]: increase in tumor retention over time
[99Tc][O]c1ccccc1CN(CCCCCCN1CCCCC1)Cc1ccccn1.[C-]#[O+].[C-]#[O+].[C-]#[O+] [Tc-5] | – | – | – | tumor uptake and retention (in words) [1]: increase in tumor retention over time

From patent publication US8747810B2, “Compositions and methods for imaging tissues, organs and tumors” (President and Fellows of Harvard College, priority 2009, dated 2014)
